Measured values: patent US20230183292A1, “IMMUNOMODULATORS” (priority 2020, published 2023)
Read-outs that look alike come from different tables or passages of the source. Positions of bridges follow the written chain, without caps; N, C: chain ends. Non-standard residues stand in square brackets, D forms with d. Residues, ends and D or L forms follow the SMILES beside them. *: point of attachment. X21 = CC[C@H]1[C@@H](O)[C@@H]2[C@H](CC[C@]3(C)[C@@H]([C@H](C)CCC(=O)*)CC[C@@H]23)[C@@]2(C)CC[C@@H](O)C[C@@H]12; Cholesteryloxycarbonyl = CC(C)CCC[C@@H](C)[C@H]1CC[C@H]2[C@@H]3CC=C4C[C@@H](OC(=O)*)CC[C@]4(C)[C@H]3CC[C@]12C; Chenodeoxycholyl = C[C@H](CCC(=O)*)[C@H]1CC[C@H]2[C@@H]3[C@H](O)C[C@@H]4C[C@H](O)CC[C@]4(C)[C@H]3CC[C@]12C; Cholyl = C[C@H](CCC(=O)*)[C@H]1CC[C@H]2[C@@H]3[C@H](O)C[C@@H]4C[C@H](O)CC[C@]4(C)[C@H]3C[C@H](O)[C@]12C; Trp(1-CH2CO2Me) = COC(=O)Cn1cc(C[C@H](N)C(=O)O)c2ccccc21; Trp(1-CH2COOH) = N[C@@H](Cc1cn(CC(=O)O)c2ccccc12)C(=O)O; Hyp = O=C(O)[C@@H]1C[C@@H](O)CN1; NMeNle = CCCC[C@H](NC)C(=O)O; NMeA = CN[C@@H](C)C(=O)O; Dab = NCC[C@H](N)C(=O)O; Dap = NC[C@H](N)C(=O)O

Molecular target: T1, PD-1/PD-L1 (Homo sapiens, UniProt Q9NZQ7)
T1 construct: TVMV protease site (C); made in house; host or cells: HEK293T cells
T1 sequence (Q9NZQ7 18-239): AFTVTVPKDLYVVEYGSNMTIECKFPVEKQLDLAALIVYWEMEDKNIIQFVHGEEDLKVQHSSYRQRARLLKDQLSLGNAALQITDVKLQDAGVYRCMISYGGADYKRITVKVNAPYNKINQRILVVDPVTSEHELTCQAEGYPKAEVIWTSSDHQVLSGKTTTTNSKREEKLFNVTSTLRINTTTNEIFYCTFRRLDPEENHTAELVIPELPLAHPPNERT
Assay: PD-1/PD-L1 Homogenous Time-Resolved Fluorescence (HTRF) binding assay
Settings: PD-1-Ig 20 nM
Source text: The ability of the compounds of formula (I) to bind to PD-L1 was investigated using a PD-1/PD-L1 Homogenous Time-Resolved Fluorescence (HTRF) binding assay.
The interaction of PD-1 and PD-L1 can be assessed using soluble, purified preparations of the extracellular domains of the two proteins. The PD-1 and PD-L1 protein extracellular domains were expressed as fusion proteins with detection tags, for PD-1, the tag was the Fc portion of Immunoglobulin (PD-1-Ig) and for PD-L1 it was the 6 histidine motif (PD-L1-His). All binding studies were performed in an HTRF assay buffer consisting of dPBS supplemented with 0.1% […] bovine serum albumin and 0.05% (v/v) Tween-20. For the h/PD-L1-His binding assay, inhibitors were pre-incubated with PD-L1-His (10 nM final) for 15 m in 4 μl of assay buffer, followed by addition of PD-1-Ig (20 nM final) in 1 μl of assay buffer and further incubation for 15 m. HTRF detection was achieved using europium crypate-labeled anti-Ig (1 nM final) and allophycocyanin (APC) labeled anti-His (20 nM final). Antibodies were diluted in HTRF detection buffer and 5 μl was dispensed on top of the binding reaction. The reaction mixture was allowed to equilibrate for 30 minutes and the resulting signal (665 nm/620 nm ratio) was obtained using an EnVision fluorometer. Additional binding assays were established between the human proteins PD-1-Ig/PD-L2-His (20 & 5 nM, respectively) and CD80-His/PD-L1-Ig (100 & 10 nM, respectively).
Recombinant Proteins: Human PD-1 (25-167) with a C-terminal human Fc domain of immunoglobulin G (Ig) epitope tag [hPD-1 (25-167)-3S-IG] and human PD-L1 (18-239) with a C-terminal His epitope tag [hPD-L1(18-239)-TVMV-His] were expressed in HEK293T cells and purified sequentially by ProteinA affinity chromatography and size exclusion chromatography. Human PD-L2-His and CD80-His was obtained through commercial sources.
Table 1 lists the IC50 values for representative examples of this disclosure measured in the PD-1/PD-L1 Homogenous Time-Resolved Fluorescence (HTRF) binding assay.

[1] = PD-L1-His 10 nM, read-out: HTRF IC50

SMILES: CCCC[C@H]1C(=O)N(C)[C@@H](CCCC)C(=O)N[C@@H](CC(C)C)C(=O)N[C@H](C(=O)NCC(N)=O)CSCC(=O)N[C@@H](Cc2ccc(O)cc2)C(=O)N(C)[C@@H](C)C(=O)N[C@@H](CC(N)=O)C(=O)N2CCC[C@H]2C(=O)N[C@@H](CNC(=O)CC[C@@H](C)[C@H]2CC[C@H]3[C@@H]4[C@H](O)C[C@@H]5C[C@H](O)CC[C@]5(C)[C@H]4C[C@H](O)[C@]23C)C(=O)N[C@@H](CC(C)C)C(=O)N2C[C@H](O)C[C@H]2C(=O)N[C@@H](Cc2c[nH]c3ccccc23)C(=O)N[C@@H](CCN)C(=O)N[C@@H](Cc2cn(CC(=O)OC)c3ccccc23)C(=O)N1C [Example 1011] ({CH2CO}-Y[NMeA]NP[Dap](Cholyl)L[Hyp]W[Dab][Trp(1-CH2CO2Me)][NMeNle][NMeNle]LCG-NH2; thioether N-14)
- IC50 [1]: 6.3 nM

SMILES: CCCC[C@H]1C(=O)N(C)[C@@H](CCCC)C(=O)N[C@@H](CC(C)C)C(=O)N[C@H](C(=O)NCC(N)=O)CSCC(=O)N[C@@H](Cc2ccc(O)cc2)C(=O)N(C)[C@@H](C)C(=O)N[C@@H](CC(N)=O)C(=O)N2CCC[C@H]2C(=O)N[C@@H](CNC(=O)O[C@H]2CC[C@@]3(C)C(=CC[C@H]4[C@@H]5CC[C@H]([C@H](C)CCCC(C)C)[C@@]5(C)CC[C@@H]43)C2)C(=O)N[C@@H](CC(C)C)C(=O)N2C[C@H](O)C[C@H]2C(=O)N[C@@H](Cc2c[nH]c3ccccc23)C(=O)N[C@@H](CCN)C(=O)N[C@@H](Cc2cn(CC(=O)O)c3ccccc23)C(=O)N1C [Example 1012] ({CH2CO}-Y[NMeA]NP[Dap](Cholesteryloxycarbonyl)L[Hyp]W[Dab][Trp(1-CH2COOH)][NMeNle][NMeNle]LCG-NH2; thioether N-14)
- IC50 (HTRF IC50, PD-L1-His 10 nM): 130 nM

SMILES: CCCC[C@H]1C(=O)N(C)[C@@H](CCCC)C(=O)N[C@@H](CC(C)C)C(=O)N[C@H](C(=O)NCC(N)=O)CSCC(=O)N[C@@H](Cc2ccc(O)cc2)C(=O)N(C)[C@@H](C)C(=O)N[C@@H](CC(N)=O)C(=O)N2CCC[C@H]2C(=O)N[C@@H](CNC(=O)CC[C@@H](C)[C@H]2CC[C@H]3[C@@H]4[C@H](O)C[C@@H]5C[C@H](O)CC[C@]5(C)[C@H]4CC[C@]23C)C(=O)N[C@@H](CC(C)C)C(=O)N2C[C@H](O)C[C@H]2C(=O)N[C@@H](Cc2c[nH]c3ccccc23)C(=O)N[C@@H](CCNC(=O)CC[C@@H](C)[C@H]2CC[C@H]3[C@@H]4[C@H](O)C[C@@H]5C[C@H](O)CC[C@]5(C)[C@H]4CC[C@]23C)C(=O)N[C@@H](Cc2cn(CC(=O)O)c3ccccc23)C(=O)N1C [Example 1013] ({CH2CO}-Y[NMeA]NP[Dap](Chenodeoxycholyl)L[Hyp]W[Dab](Chenodeoxycholyl)[Trp(1-CH2COOH)][NMeNle][NMeNle]LCG-NH2; thioether N-14)
- IC50 [1]: 460 nM

SMILES: CCCC[C@H]1C(=O)N(C)[C@@H](CCCC)C(=O)N[C@@H](CC(C)C)C(=O)N[C@H](C(=O)NCC(N)=O)CSCC(=O)N[C@@H](Cc2ccc(O)cc2)C(=O)N(C)[C@@H](C)C(=O)N[C@@H](CC(N)=O)C(=O)N2CCC[C@H]2C(=O)N[C@@H](CNC(=O)CC[C@@H](C)[C@H]2CC[C@H]3[C@@H]4[C@H](O)[C@H](CC)[C@@H]5C[C@H](O)CC[C@]5(C)[C@H]4CC[C@]23C)C(=O)N[C@@H](CC(C)C)C(=O)N2C[C@H](O)C[C@H]2C(=O)N[C@@H](Cc2c[nH]c3ccccc23)C(=O)N[C@@H](CCNC(=O)CC[C@@H](C)[C@H]2CC[C@H]3[C@@H]4[C@H](O)[C@H](CC)[C@@H]5C[C@H](O)CC[C@]5(C)[C@H]4CC[C@]23C)C(=O)N[C@@H](Cc2cn(CC(=O)O)c3ccccc23)C(=O)N1C [Example 1014] ({CH2CO}-Y[NMeA]NP[Dap](X21)L[Hyp]W[Dab](X21)[Trp(1-CH2COOH)][NMeNle][NMeNle]LCG-NH2; thioether N-14)
- IC50 [1]: 340 nM
